Reference: PubChem BioAssay (NCI)
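GI50 marks 50% less growth. TGI: total growth inhibition.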

What was measured:
Test in all cases: NCI-60 cell line screen, 384-well format
NCI-H23 lung = tested on: NCI-H23 lung
TK-10 renal = tested on: TK-10 renal
CCRF-CEM leukemia = tested on: CCRF-CEM leukemia
NCI-H522 lung = tested on: NCI-H522 lung
SNB-19 CNS = tested on: SNB-19 CNS
SK-OV-3 ovarian = tested on: SK-OV-3 ovarian
SW-620 colon = tested on: SW-620 colon
HT29 colon = tested on: HT29 colon
MOLT-4 leukemia = tested on: MOLT-4 leukemia
COLO 205 colon = tested on: COLO 205 colon
786-0 renal = tested on: 786-0 renal
HCC-2998 colon = tested on: HCC-2998 colon
RPMI-8226 leukemia = tested on: RPMI-8226 leukemia
SF-268 CNS = tested on: SF-268 CNS
SF-295 CNS = tested on: SF-295 CNS
OVCAR-8 ovarian = tested on: OVCAR-8 ovarian
MALME-3M melanoma = tested on: MALME-3M melanoma
SF-539 CNS = tested on: SF-539 CNS
DU-145 prostate = tested on: DU-145 prostate
SR leukemia = tested on: SR leukemia
NCI-H460 NSCLC = tested on: NCI-H460 NSCLC
NCI-H322M lung = tested on: NCI-H322M lung
HOP-92 NSCLC = tested on: HOP-92 NSCLC
ACHN renal = tested on: ACHN renal
T-47D breast = tested on: T-47D breast
SK-MEL-2 melanoma = tested on: SK-MEL-2 melanoma
LOX IMVI melanoma = tested on: LOX IMVI melanoma
MDA-MB-435 melanoma = tested on: MDA-MB-435 melanoma
PC-3 prostate = tested on: PC-3 prostate
MDA-MB-468 breast = tested on: MDA-MB-468 breast
UACC-62 melanoma = tested on: UACC-62 melanoma
BT-549 breast = tested on: BT-549 breast
CAKI-1 renal = tested on: CAKI-1 renal
MDA-MB-231 breast = tested on: MDA-MB-231 breast
HCT-116 colon = tested on: HCT-116 colon
MCF7 breast = tested on: MCF7 breast
KM12 colon = tested on: KM12 colon
OVCAR-5 ovarian = tested on: OVCAR-5 ovarian
IGROV1 ovarian = tested on: IGROV1 ovarian
NCI-H226 lung = tested on: NCI-H226 lung
OVCAR-4 ovarian = tested on: OVCAR-4 ovarian
NCI/ADR-RES ovarian = tested on: NCI/ADR-RES ovarian
UO-31 renal = tested on: UO-31 renal
U251 glioblastoma = tested on: U251 glioblastoma
M14 melanoma = tested on: M14 melanoma
HOP-62 NSCLC = tested on: HOP-62 NSCLC
SN12C renal = tested on: SN12C renal
SK-MEL-5 melanoma = tested on: SK-MEL-5 melanoma
RXF 393 renal = tested on: RXF 393 renal
A549 NSCLC = tested on: A549 NSCLC
SK-MEL-28 melanoma = tested on: SK-MEL-28 melanoma
UACC-257 melanoma = tested on: UACC-257 melanoma
HCT-15 colon = tested on: HCT-15 colon
A498 renal = tested on: A498 renal
OVCAR-3 ovarian = tested on: OVCAR-3 ovarian
HL-60(TB) leukemia = tested on: HL-60(TB) leukemia
K-562 leukemia = tested on: K-562 leukemia
SNB-75 CNS = tested on: SNB-75 CNS
HS 578T breast = tested on: HS 578T breast
EKVX NSCLC = tested on: EKVX NSCLC

## Cc1ccc(NC(=O)c2ccc(CN3CC[C@H](N(C)C)C3)c(C(F)(F)F)c2)cc1Nc1nccc(-c2cncnc2)n1
NCI-H23 lung
  GI50: 2060 nM
  TGI: 7780 nM
TK-10 renal
  GI50: 2200 nM
  TGI: 4710 nM
CCRF-CEM leukemia
  GI50: 1990 nM
  TGI: 3440 nM
NCI-H522 lung
  GI50: 1520 nM
  TGI: 3400 nM
SNB-19 CNS
  GI50: 4560 nM
  TGI: 13600 nM
SK-OV-3 ovarian
  GI50: 2090 nM
  TGI: 4530 nM
SW-620 colon
  GI50: 3080 nM
  TGI: 10600 nM
HT29 colon
  GI50: 947 nM
  TGI: 2190 nM
MOLT-4 leukemia
  GI50: 1780 nM
  TGI: 3170 nM
COLO 205 colon
  GI50: 396 nM
  TGI: 1780 nM
786-0 renal
  GI50: 1890 nM
  TGI: 3470 nM
HCC-2998 colon
  GI50: 1160 nM
  TGI: 2640 nM
RPMI-8226 leukemia
  GI50: 1340 nM
  TGI: 2620 nM
SF-268 CNS
  GI50: 2720 nM
  TGI: 6990 nM
SF-295 CNS
  GI50: 1900 nM
  TGI: 3420 nM
OVCAR-8 ovarian
  GI50: 2190 nM
  TGI: 5300 nM
MALME-3M melanoma
  GI50: 147 nM
  TGI: 436 nM
SF-539 CNS
  GI50: 1430 nM
  TGI: 2750 nM
DU-145 prostate
  GI50: 6800 nM
  TGI: 18900 nM
SR leukemia
  GI50: 1820 nM
  TGI: 3230 nM
NCI-H460 NSCLC
  GI50: 1670 nM
  TGI: 3350 nM
NCI-H322M lung
  GI50: 3920 nM
  TGI: 12800 nM
HOP-92 NSCLC
  GI50: 1640 nM
  TGI: 3140 nM
ACHN renal
  GI50: 1840 nM
  TGI: 4100 nM
T-47D breast
  GI50: 1530 nM
  TGI: 3060 nM
SK-MEL-2 melanoma
  GI50: 1200 nM
  TGI: 2460 nM
LOX IMVI melanoma
  GI50: 1030 nM
  TGI: 2220 nM
MDA-MB-435 melanoma
  GI50: 1050 nM
  TGI: 3510 nM
PC-3 prostate
  GI50: 3380 nM
  TGI: 8450 nM
MDA-MB-468 breast
  GI50: 2180 nM
  TGI: 3660 nM
UACC-62 melanoma
  GI50: 318 nM
  TGI: 1290 nM
BT-549 breast
  GI50: 3960 nM
  TGI: 10000 nM
CAKI-1 renal
  GI50: 2860 nM
  TGI: 6720 nM
MDA-MB-231 breast
  GI50: 1750 nM
  TGI: 3240 nM
HCT-116 colon
  GI50: 1380 nM
  TGI: 2740 nM
MCF7 breast
  GI50: 2310 nM
  TGI: 7760 nM
KM12 colon
  GI50: 2510 nM
  TGI: 5920 nM
OVCAR-5 ovarian
  GI50: 1860 nM
  TGI: 4570 nM
IGROV1 ovarian
  GI50: 3680 nM
  TGI: 13900 nM
NCI-H226 lung
  GI50: 2090 nM
  TGI: 5070 nM
OVCAR-4 ovarian
  GI50: 2430 nM
  TGI: 6600 nM
NCI/ADR-RES ovarian
  GI50: 3880 nM
  TGI: 13300 nM
UO-31 renal
  GI50: 2000 nM
  TGI: 4130 nM
U251 glioblastoma
  GI50: 1950 nM
  TGI: 3760 nM
M14 melanoma
  GI50: 233 nM
  TGI: 811 nM
HOP-62 NSCLC
  GI50: 2190 nM
  TGI: 6540 nM
SN12C renal
  GI50: 2580 nM
  TGI: 6550 nM
SK-MEL-5 melanoma
  GI50: 674 nM
  TGI: 1990 nM
RXF 393 renal
  GI50: 1520 nM
  TGI: 3220 nM
A549 NSCLC
  GI50: 3010 nM
  TGI: 10900 nM
SK-MEL-28 melanoma
  GI50: 304 nM
  TGI: 1130 nM
UACC-257 melanoma
  GI50: 430 nM
  TGI: 1760 nM
HCT-15 colon
  GI50: 2490 nM
  TGI: 5660 nM
A498 renal
  GI50: 2690 nM
  TGI: 6220 nM
OVCAR-3 ovarian
  GI50: 2400 nM
  TGI: 5420 nM
HL-60(TB) leukemia
  GI50: 433 nM
  TGI: 1310 nM

## CO[C@@H](C)Cn1c(=O)n(C)c2cnc3ccc(-c4cncc(C(C)(C)O)c4)cc3c21
NCI-H23 lung
  GI50: 319 nM
  TGI: 2600 nM
TK-10 renal
  GI50: 220 nM
  TGI: 907 nM
CCRF-CEM leukemia
  GI50: 77.9 nM
  TGI: 707 nM
NCI-H522 lung
  GI50: 104 nM
  TGI: 1630 nM
SNB-19 CNS
  GI50: 334 nM
  TGI: 12600 nM
SK-OV-3 ovarian
  GI50: 88.4 nM
  TGI: 1010 nM
SW-620 colon
  GI50: 197 nM
  TGI: 1360 nM
HT29 colon
  GI50: 226 nM
  TGI: 11100 nM
MOLT-4 leukemia
  GI50: 81.2 nM
  TGI: 299 nM
COLO 205 colon
  GI50: 186 nM
  TGI: 1480 nM
786-0 renal
  GI50: 133 nM
  TGI: 4550 nM
HCC-2998 colon
  GI50: 188 nM
  TGI: 2110 nM
K-562 leukemia
  GI50: 162 nM
  TGI: 11800 nM
RPMI-8226 leukemia
  GI50: 28.2 nM
  TGI: 78.8 nM
SNB-75 CNS
  GI50: 44 nM
  TGI: 502 nM
SF-268 CNS
  GI50: 293 nM
  TGI: 1770 nM
HS 578T breast
  GI50: 35.7 nM
  TGI: 217 nM
SF-295 CNS
  GI50: 57 nM
  TGI: 413 nM
OVCAR-8 ovarian
  GI50: 86.8 nM
  TGI: 11200 nM
MALME-3M melanoma
  GI50: 62.6 nM
  TGI: 327 nM
SF-539 CNS
  GI50: 141 nM
  TGI: 1970 nM
DU-145 prostate
  GI50: 84.6 nM
  TGI: 2690 nM
SR leukemia
  GI50: 20.2 nM
  TGI: 55 nM
NCI-H460 NSCLC
  GI50: 45.1 nM
  TGI: 1570 nM
NCI-H322M lung
  GI50: 139 nM
  TGI: 2300 nM
HOP-92 NSCLC
  GI50: 150 nM
  TGI: 702 nM
T-47D breast
  GI50: 77.1 nM
  TGI: 406 nM
SK-MEL-2 melanoma
  GI50: 243 nM
  TGI: 592 nM
LOX IMVI melanoma
  GI50: 78.2 nM
  TGI: 918 nM
MDA-MB-435 melanoma
  GI50: 194 nM
  TGI: 2360 nM
PC-3 prostate
  GI50: 84.2 nM
  TGI: 740 nM
MDA-MB-468 breast
  GI50: 165 nM
  TGI: 574 nM
UACC-62 melanoma
  GI50: 102 nM
  TGI: 719 nM
BT-549 breast
  GI50: 96.2 nM
  TGI: 503 nM
CAKI-1 renal
  GI50: 76.1 nM
  TGI: 485 nM
MDA-MB-231 breast
  GI50: 57.1 nM
  TGI: 20600 nM
HCT-116 colon
  GI50: 390 nM
  TGI: 1770 nM
MCF7 breast
  GI50: 71.1 nM
  TGI: 1670 nM
KM12 colon
  GI50: 136 nM
  TGI: 12900 nM
OVCAR-5 ovarian
  GI50: 206 nM
  TGI: 1690 nM
IGROV1 ovarian
  GI50: 35 nM
  TGI: 173 nM
NCI-H226 lung
  GI50: 109 nM
  TGI: 667 nM
OVCAR-4 ovarian
  GI50: 126 nM
  TGI: 722 nM
NCI/ADR-RES ovarian
  GI50: 2150 nM
  TGI: 15400 nM
UO-31 renal
  GI50: 122 nM
  TGI: 6310 nM
U251 glioblastoma
  GI50: 221 nM
  TGI: 3460 nM
M14 melanoma
  GI50: 151 nM
  TGI: 1850 nM
HOP-62 NSCLC
  GI50: 109 nM
  TGI: 1340 nM
SN12C renal
  GI50: 84.9 nM
  TGI: 3570 nM
SK-MEL-5 melanoma
  GI50: 157 nM
  TGI: 463 nM
RXF 393 renal
  GI50: 54.6 nM
  TGI: 1370 nM
A549 NSCLC
  GI50: 70.7 nM
  TGI: 1180 nM
SK-MEL-28 melanoma
  GI50: 221 nM
  TGI: 3480 nM
UACC-257 melanoma
  GI50: 429 nM
  TGI: 2700 nM
HCT-15 colon
  GI50: 154 nM
  TGI: 12500 nM
A498 renal
  GI50: 33 nM
  TGI: 374 nM
OVCAR-3 ovarian
  GI50: 84.6 nM
  TGI: 894 nM
HL-60(TB) leukemia
  GI50: 463 nM
  TGI: 1610 nM
EKVX NSCLC
  GI50: 96.1 nM
  TGI: 885 nM
